Test results published in US12661336B2, “Polymorphs of phenyl pyrrole aminoguandium salts” (SYNACT PHARMA APS, priority 2021, dated 2026).
Where a name gives a salt, the structure may show the parent alone. Read-outs that look alike come from different tables or passages of the source.

Legend:
[1] = Thermodynamic solubility of AP1189 salts in 0.5 M and 0.2 M buffer solutions (Example 6, Tables 38a, 38b); conditions: for XRPD analysis of residual solids from solubility experiment / Solubility (mM freebase): 0.5 M buffer; for Solubility (mM freebase): 24 h
[2] = buffer solution pH 1.2, pH adjusted to 1.2 with concentrated hydrochloric acid, samples fully dissolved, HPLC
Protocol: As a result, the pH was adjusted to 1.2 with concentrated hydrochloric acid in both solutions. Both sample preparations were diluted 500 times with the sample diluent (acetonitrile:water 1:1 v/v).

[3] = 40° C./75% RH for 24 hours
Protocol: The resulting mixture was thermally cycled for 3 days between 40° C. and 5° C. (Ramp rate: 0.1° C./min with isothermal holds of 1 hour at 40° C. and 5° C.).
The resulting mixture was thermally cycled for 3 days between 40° C. and 5° C. (Ramp rate: 0.1° C./min with isothermal holds of 1 hour at 40° C. and 5° C.). Solids were isolated by centrifuge filtration and analysed wet by XRPD. Sample was dried at 40° C. under vacuum for 24 hours then reanalysed by XRPD.
The resulting mixture was thermally cycled for 3 days between 40° C. and 5° C. (Ramp rate: 0.1° C./min with isothermal holds of 1 hour at 40° C. and 5° C.). Solids were isolated by centrifuge filtration and analysed wet by XRPD.

Compound: CC(=O)O.N=C(N)NN=CC=Cc1cccn1-c1ccccc1[N+](=O)[O-] [AP1189 acetate, N-{3-[1-(2-nitrophenyl)-1H-pyrrol-2-yl]-allylidene}-aminoguanidinium acetate]
- XRPD analysis of residual solids from solubility experiment ([1]; pH 1.2): a likely HCl salt (assigned as HCl Pattern 1) was formed
- XRPD analysis of residual solids from solubility experiment ([1]; pH 4.5): remained
- solubility, comparison of salts (in words) ([1]; 0.5 M buffers, succinate Pattern 1 compared with fumarate Pattern 1): highest solubility
- solubility at pH 1.2 (in words) ([1]; pH 1.2): high solubility
- Determined concentration in pH 1.2 samples, pH 1.2 (time) [2]: >223 mg/mL
- Determined concentration in pH 1.2 samples, pH 1.2 (time) ([2]; time: acetate 5 h, succinate 0.5 h): >617 mM (5 h)

Compound: N=C(N)NN=CC=Cc1cccn1-c1ccccc1[N+](=O)[O-].O=S(=O)(O)NC1CCCCC1 [Cyclamic Acid Pattern 5, N-{3-[1-(2-nitrophenyl)-1H-pyrrol-2-yl]-allylidene}-aminoguanidinium cyclamate]
- XRPD diffractogram after storage [3]: consistent with pattern 5

Compound: N=C(N)N/N=C/C=C/c1cccn1-c1ccccc1[N+](=O)[O-] [Fumarate Salt Pattern 1 (Form D)]
- Solubility (mM freebase) ([1]; pH 1.2, thermodynamic solubility): 7.84 mM freebase
- Solubility (mM freebase) ([1]; pH 4.5, thermodynamic solubility): 1.64 mM freebase

Compound: N-{3-[1-(2-nitrophenyl)-1H-pyrrol-2-yl]-allylidene}-aminoguanidine glutaric acid salt [Glutaric Acid Pattern 1]
- XRPD diffractogram after storage [3]: resulted in a new pattern by XRPD (Pattern 4)

Compound: N-{3-[1-(2-nitrophenyl)-1H-pyrrol-2-yl]-allylidene}-aminoguanidinium edisylate [Ethane-1,2-disulfonic Acid Pattern 5]
- XRPD diffractogram after storage [3]: consistent with pattern 1
